This note sets out measurements from patent publication US6716987B1, “Derivatives of benzofuran or benzodioxazole compounds” (Kyowa Hakko Kogyo Co., Ltd., priority 1995, dated 2004).

The term melting point denotes the temperature of the solid-liquid transition.

One data set deals with T1, phosphodiesterase 4A (Homo sapiens, UniProt P27815).
T1 construct: made in house; host or cells: E. coli
Put plainly: Recombinant human PDE4A assay. It counts as biochemical. The settings on record: for inhibition at 0.1 µM: 10^−7 M, read-out: Enzyme Inhibitory Activity (%, 10^−7 M).

T1 sequence (P27815 224-886 limits assumed): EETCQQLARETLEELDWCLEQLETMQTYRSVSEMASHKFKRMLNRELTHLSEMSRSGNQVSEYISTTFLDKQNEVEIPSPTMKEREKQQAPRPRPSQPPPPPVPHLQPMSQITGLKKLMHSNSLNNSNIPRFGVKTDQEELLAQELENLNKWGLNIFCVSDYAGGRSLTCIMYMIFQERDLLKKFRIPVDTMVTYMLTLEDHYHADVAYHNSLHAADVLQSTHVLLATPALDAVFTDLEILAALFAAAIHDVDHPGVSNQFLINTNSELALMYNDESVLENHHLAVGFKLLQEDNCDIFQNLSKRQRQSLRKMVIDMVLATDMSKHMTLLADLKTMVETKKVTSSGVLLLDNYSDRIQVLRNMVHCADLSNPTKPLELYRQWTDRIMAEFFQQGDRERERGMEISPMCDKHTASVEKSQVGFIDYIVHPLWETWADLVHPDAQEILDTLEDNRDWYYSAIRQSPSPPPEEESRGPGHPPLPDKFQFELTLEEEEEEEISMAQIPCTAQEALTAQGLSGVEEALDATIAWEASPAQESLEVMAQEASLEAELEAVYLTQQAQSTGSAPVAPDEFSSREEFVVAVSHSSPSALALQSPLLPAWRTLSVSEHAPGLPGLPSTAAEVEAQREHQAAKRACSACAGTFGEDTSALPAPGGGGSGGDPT

`COc1ccc(/C=C/c2c(Cl)cncc2Cl)c2cc(-c3ccccn3)oc12` [Compound 84, (E)-4-[2-(3,5-Dichloro-4-pyridyl)ethenyl]-7-methoxy-2-(2-pyridyl)benzofuran] displayed a melting point of 157 to 158 °C. In addition, the inhibition at 0.1 µM on phosphodiesterase 4A amounted to 98%.

Consider `COc1ccc(C(=O)Cc2c(Cl)cncc2Cl)c2c1OC1(CCCCC1)C2` [Compound 101, 4-[2-(3,5-Dichloro-4-pyridyl)-1-oxoethyl]-7-methoxy-spiro[2,3-dihydrobenzofuran-2,1′-cyclohexane]], for which the melting point lay within 149 to 151 °C. Further, the inhibition at 0.1 µM on phosphodiesterase 4A came out at 100%.

`COc1ccc(C(=O)Nc2c(Cl)cncc2Cl)c2c1OC1(C=C2)CCCC1` [Compound 123, 5-(3,5-Dichloro-4-pyridylaminocarbonyl)-8-methoxy-spiro[benzopyran-2,1′-cyclopentane]]: the melting point fell in the range of 129 to 131 °C. The inhibition at 0.1 µM at phosphodiesterase 4A was 87%.

Take `COc1ccc(C(=O)Nc2c(Cl)cncc2Cl)c2c1OC1(CCCC1)O2` [Compound 134, 7-(3,5-Dichloro-4-pyridylaminocarbonyl)-4-methoxy-spiro[1,3-benzodioxole-2,1′-cyclopentane]]: the melting point is 168 to 170 °C. Further, the inhibition at 0.1 µM at phosphodiesterase 4A is 100%.

Consider `COc1ccc(C=Cc2c(Cl)cncc2Cl)c2c1OC1(CCCC1)O2` [Compound 138, 7-[2-(3,5-Dichloro-4-pyridyl)ethenyl]-4-methoxy-spiro[1,3-benzodioxole-2,1′-cyclopentane]], for which the melting point fell in the range of 100 to 101 °C. The inhibition at 0.1 µM at phosphodiesterase 4A amounted to 100%.

Molecule `COc1ccc(C(=O)Cc2c(Cl)cncc2Cl)c2c(CC(=O)OCCc3ccccc3)coc12` [Compound 153, 4-[2-(3,5-Dichloro-4-pyridyl)-1-oxoethyl]-7-methoxy-3-phenethyloxycarbonylmethylbenzofuran] yielded a melting point of 183 to 184 °C. The inhibition at 0.1 µM at phosphodiesterase 4A was 94%.

Regarding `COc1ccc(C(=O)Cc2c(Cl)cncc2Cl)c2c(CC(=O)OCc3ccccc3[N+](=O)[O-])coc12` [Compound 154, 4-[2-(3,5-Dichloro-4-Pyridyl)-1-oxoethyl]-7-methoxy-3-[(2-nitrobenzyl)oxycarbonylmethyl]benzofuran], the melting point fell in the range of 200 to 201 °C. The inhibition at 0.1 µM at phosphodiesterase 4A stood at 92%.

The molecule `COc1ccc(C(=O)Cc2c(Cl)cncc2Cl)c2c(CC(=O)NCc3ccccc3)coc12` [Compound 155, 3-Benzylaminocarbonylmethyl-4-[2-(3,5-dichloro-4-pyridyl)-1-oxoethyl]-7-methoxybenzofuran] displayed a melting point of 244 to 246 °C. The inhibition at 0.1 µM on phosphodiesterase 4A amounted to 96%.

With `COc1ccc(C(=O)Cc2c(Cl)cncc2Cl)c2c(CC(=O)Nc3cccnc3)coc12` [Compound 156, 4-[2-(3,5-Dichloro-4-pyridyl)-1-oxoethyl]-7-methoxy-3-[(3-pyridyl)aminocarbonylmethyl]benzofuran], the melting point lay within 252 to 255 °C. The inhibition at 0.1 µM at phosphodiesterase 4A was 90%.

As for `COc1ccc(C(=O)Cc2c(Cl)cccc2Cl)c2cc(C(=O)c3ccccn3)oc12` [Compound 160, 4-[2-(2,6-Dichlorophenyl)-1-oxoethyl]-7-methoxy-2-(2-pyridylcarbonyl)benzofuran], the melting point fell in the range of 228 to 229 °C. Further, at phosphodiesterase 4A, the inhibition at 0.1 µM came to 91%.

`COc1ccc(C(=O)Cc2c(Cl)cccc2Cl)c2cc(C(=O)Nc3cccc(F)c3)oc12` [Compound 161, 4-[2-(2,6-Dichlorophenyl)-1-oxoethyl]-2-[(3-fluorophenyl)aminocarbonyl]-7-methoxybenzofuran] yielded a melting point of 251 to 252 °C. Also, the inhibition at 0.1 µM at phosphodiesterase 4A stood at 87%.

As for `COc1ccc(C(=O)Cc2c(Cl)cccc2Cl)c2cc(C(=O)c3ccccc3)oc12` [Compound 163, 2-Benzoyl-4-[2-(2,6-dichlorophenyl)-1-oxoethyl]-7-methoxybenzofuran], the melting point was in the range of 223 to 224 °C. For the same molecule, the inhibition at 0.1 µM at phosphodiesterase 4A came to 96%.

Regarding `COc1ccc(C(=O)Cc2ccncc2)c2cc(C(=O)Nc3ccccc3)oc12.Cl` [Compound 165, 7-Methoxy-4-[1-oxo-2-(4-pyridyl)ethyl]-2-(phenylaminocarbonyl)benzofuran.hydrochloride], the “Enzyme Inhibitory Activity (%, 10^−7 M)” value on phosphodiesterase 4A came to 64%.

Consider `COc1ccc(C(=O)Nc2c(Cl)cccc2Cl)c2cc(C(=O)c3ccccc3)oc12` [Compound 168, 2-Benzoyl-4-[(2,6-dichiorophenyl)aminocarbonyl]-7-methoxybenzofuran], for which, on phosphodiesterase 4A, the “Enzyme Inhibitory Activity (%, 10^−7 M)” value is 96%.

As for `COc1ccc(C(=O)Cc2c(Cl)cncc2Cl)c2c1OC1(CCCCCC1)O2` [Compound 177, 7-[2-(3,5-Dichloro-4-pyridyl)-1-oxoethyl)-4-methoxy-spiro[1,3-benzodioxole-2,1′-cycloheptane]], the inhibition at 0.1 µM on phosphodiesterase 4A was 93%.

`COc1ccc(C(=O)Cc2c(Cl)cncc2Cl)c2c1OCCCO2` [Compound 189, 6-[2-(3,5-dichloro-4-pyridyl)-1-oxoethyl]-3,4-dihydro-9-methoxy-2H-1,5-benzodioxepin] came in with a melting point of 150 to 151 °C. Besides, on phosphodiesterase 4A, the inhibition at 0.1 µM came out at 84%.

In turn, `COc1ccc(/C=C/c2c(Cl)cncc2Cl)c2c1OCCCO2` [Compound 191, (E)-6-[2-(3,5-dichloro-4-pyridyl)ethenyl]-3,4-dihydro-9-methoxy-2H-1,5-benzodioxepin] registered a melting point of 118 to 120 °C. The inhibition at 0.1 µM on phosphodiesterase 4A is 84%.

In turn, `COc1ccc(C(=O)Cc2c(Cl)cncc2Cl)c2c1OCCCCO2` [Compound 194, 7-[2-(3,5-dichloro-4-pyridyl)-1-oxoethyl]-10-methoxy-2,3,4,5-tetrahydro-1,6-benzodioxocin] displayed a melting point of 142 to 143 °C. Besides, the inhibition at 0.1 µM at phosphodiesterase 4A is 92%.

Turning to `COc1ccc(C(=O)Cc2c(Cl)c[n+]([O-])cc2Cl)c2c1OCCCCO2` [Compound 195, 7-[2-(3,5-dichloro-N-oxo-4-pyridyl)-1-oxoethyl]-10-methoxy-2,3,4,5-tetrahydro-1,6-benzodioxocin], the “Enzyme Inhibitory Activity (%, 10^−7 M)” value at phosphodiesterase 4A was 93%.

In the case of `COc1ccc(C(=O)Nc2c(Cl)cncc2Cl)c2c1OC(C)(C)O2` [Compound 199, 7-(3,5-dichloro-4-pyridylaminocarbonyl)-4-methoxy-2,2-dimethyl-3,4-benzodioxole], the “Enzyme Inhibitory Activity (%, 10^−7 M)” value at phosphodiesterase 4A is 57%.
